These results are taken from patent publication US8957071B2, “Treatment of vascular, autoimmune and inflammatory diseases using low dosages of IMPDH inhibitors” (Aspreva Pharmaceuticals S.A., priority 2005, dated 2015).

The structures appear in SMILES notation.

A short description of series [1]: Serum mycophenolic acid levels in Ldlr−/− mice by commercial assay. It is filed as in vivo. The protocol:
(§1) Diet W will be formulated with CellCept® incorporated directly into the chow, at concentrations of 0.04%, 0.08% or 0.26% mycophenolate mofetil by weight. When administered in this way, the mice will be expected to consume 15 mg/kg/day (“low dose”), 30 mg/kg/day (“low dose”), or 100 mg/kg/day (“high-dose”) of the drug. Mice will be sacrificed 12 weeks after feeding on the study diet, and the endpoints determined.
No MPA was detected in the serum of control mice (data not shown).

The conditions of series [2]: cited from earlier work.
Series [3] relates to male New Zealand White (NZW) rabbits. As to the kind of experiment: High-cholesterol New Zealand White rabbit model of atherogenesis (Example 2). The series is classed as in vivo. The conditions noted are these: 1 or 5 mg/kg by gastric gavage daily, 12 weeks. The protocol: This example illustrates the use of low dose MMF in the treatment of a rabbit model of atherogenesis.
Study Design: Studies are done in 30 male New Zealand White (NZW) rabbits weighing 1.0-1.5 kg at the beginning of the experiment. After obtaining baseline blood samples, rabbits are fed ad libitum a 1% cholesterol diet for 12 weeks. This diet is prepared by dissolving cholesterol (Sigma, St. Louis, Mo.) in 100% ethanol at a temperature of 60° C., mixing this solution with standard rabbit chow (Purina), and allowing the complete evaporation of the ethanol.
The rabbits are divided into three groups and treated as follows: (1) CHOL+MMF (extra-low) group (n=10) receives by gastric gavage 5 mg/kg of MMF in 0.4 ml of water; (2) CHOL+MMF (ultra-low) group (n=10) receives by gastric gavage 1 mg/kg of MMF in 0.4 ml of water; and (3) CHOL group (n=10) receives by the same route daily 0.4 ml of water. […] The MMF and vehicle are given daily throughout the 12 experimental weeks.
Blood samples for determination of plasma cholesterol and triglyceride are taken every 2 weeks. […]
Determination of aortic cholesterol content: Lipids are isolated from the aortic segments as described by Folch et al., 1957, J Biol Chem. […]:497-509. […] Cholesterol is determined in the lipid extract by the method of Zlatikis et al., 1953, J Lab Clin Med. 1:486-492. […]

In series [4] the test system is male Ldlr−/− mice. Kind of series: Atherosclerosis in Ldlr−/− (LDLRKO) mice on Western-type diet: percentage of aortic sinus occluded by plaque. It is filed as in vivo. The conditions noted are these: 12 weeks; for reduction of atherosclerosis (AS): male Ldlr−/− mice; for percentage of aortic sinus occluded by plaque: control 16%.
Text: (§2) This example illustrates the effect of low-dose MMF on mice lacking the low-density lipoprotein receptor B6.129S7-Ldlrtm1Her/J (hereinafter referred to as LDLRKO mice) obtained from Jackson Labs. When placed on a high-fat, high-cholesterol “Western-type” diet, these mice develop severe atherosclerosis (Ishibashi et al., 1994, J Clin Invest. 93(5):1885-93).
as §1
The primary endpoint will be evaluated using histological analysis of plaque area at the aortic root. The total lesion area in oil red O-stained cryostat sections of the aortic root is quantified using a Leica image analysis system. Mean lesion area (as a percentage of aortic cross-sectional area) is calculated from 10 oil red O-stained sections, beginning at the appearance of the tricuspid valves.
(§3) Plaque composition is analysed as a secondary endpoint using oil red O staining (for lipid content—see above), Movat's pentachrome staining (for lesion complexity including extracellular matrix and glycosaminoglycans), and haematoxylin and eosin (for macrophage content). The average atherosclerotic area is compared between the groups using the two-way ANOVA test. Additional secondary endpoints will be plasma levels of total cholesterol, HDL cholesterol, LDL cholesterol, triglycerides, and glucose, as well as en face visualization of the thoracic and abdominal aortas stained with oil red O.
Low-dose therapy (15 mg/kg/day, a dosage equivalent to approximately 1 gram per day in a 70 kg human) reduced AS by 31% (from 16% to 11% of the sinus) whereas high-dose therapy reduced AS by 61% (from 16% to 6.2%). The response was dose-dependent. Quantification was performed by a single, trained observer blinded to treatment group.

Series [5] has as its system rabbits. The conditions noted are these: 30 mg/kg/day; cited from earlier work.
The subject of series [6] is male Ldlr−/− mice. As to the kind of experiment: Serum lipids (triglycerides, phospholipids, HDL) in Ldlr−/− mice on Western-type diet. The series is classed as in vivo. The conditions noted are these: for serum phospholipid (PPL) levels: control 1078+91 mg/dL; for serum triglyceride (Tgs) levels: control 1198+137 mg/dL.
Text: as §2, §1, §3
The response was dose-dependent. Quantification was performed by a single, trained observer blinded to treatment group. Mouse groups are the same as for FIG. 1.
Importantly, levels of serum HDL-cholesterol are not lowered by MMF treatment. Quantification was performed by a single, trained observer blinded to treatment group. Mouse groups are the same as for FIG. 1.

Where [7] appears, read: high-dose (100 mg/kg/day) in chow.

Consider `COc1c(C)c2c(c(O)c1C/C=C(\C)CCC(=O)O)C(=O)OC2` [MPA, mycophenolic acid], for which the “average serum mycophenolic acid (MPA) level” value was 3.65 ± 0.3 mg/L in series [1] (high-dose group (MMF 100 mg/kg/day in chow)) and 1.16 ± 0.09 mg/L in series [1] (low-dose group (MMF 15 mg/kg/day in chow)).
For the molecule `COc1c(C)c2c(c(O)c1C/C=C(\C)CCC(=O)OCCN1CCOCC1)C(=O)OC2` [mycophenolate mofetil, morpholinoethyl E-6-(1,3-dihydro-4-hydroxy-6-methoxy-7-methyl-3-oxo-5-isobenzofuranyl)-4-methyl-4-hexenoate], the solubility in water entry in series [2] is on record as “insoluble in water”. In series [3], the “size and severity of the atherosclerotic lesion (intima/media ratio, aortic cholesterol content), expected” value is listed as “significantly reduced”. In series [4] (setting [7]), the “reduction of atherosclerosis (AS)” value is reported as 61% and the “percentage of aortic sinus occluded by plaque” value came out at 6.2%. In series [4] (low-dose 15 mg/kg/day in chow), the “reduction of atherosclerosis (AS)” value was found to be 31% and the “percentage of aortic sinus occluded by plaque” value is given as 11 % of the sinus. Further, the “effect on atherogenic potential of a high-cholesterol diet” value in series [5] was “ameliorated the atherogenic potential of a high-cholesterol diet”. For the same molecule, in series [6] (high-dose (100 mg/kg/day)), the “serum phospholipid (PPL) levels” value is 696+115 mg/dL and the “serum triglyceride (Tgs) levels” value is 452+80 mg/dL. Besides, in series [6] (low-dose 15 mg/kg/day), the “serum phospholipid (PPL) levels” value was 964+87 mg/dL and the “serum triglyceride (Tgs) levels” value is given as 994+149 mg/dL. Besides, the “effect on HDL levels” value in series [6] (male Ldlr−/− mice, same groups as FIG. 1) is listed as “does not appear to affect HDL levels”.
